Results reported in publication PMC7234998, “Quantification of Colistin in Plasma by Liquid Chromatography-Tandem Mass Spectrometry: Application to a Pharmacokinetic Study” (Scientific Reports, 2020).
Positions of bridges follow the written chain, without caps; N, C: chain ends. Non-standard residues stand in square brackets, D forms with d. Residues, ends and D or L forms follow the SMILES beside them. *: point of attachment. X1 = CC[C@H](C)CCCCC(=O)*; Dab = NCC[C@H](N)C(=O)O

Assays:
[1] = rats, cited from earlier work
From the text: Following the validation of the present analytical method, the method was applied to estimate the pharmacokinetic profile of colistin in experimental rats. Choosing the animal species to perform the pharmacokinetic study was based on the similarity of colistin pharmacokinetic profile between animal species and humans. […] The species that has the closest pharmacokinetic profile to humans are rats[43]–[45]. […] This is because of a distribution phase that occurs before the decline in the colistin concentration. This finding is in agreement with previous reports[43],[44],[49]. In the present study, we observed that colistin concentration declined rapidly over 180–240 min which is consistent with earlier findings[45],[49]. […] In the present study, the Vd of colistin was 2.45 ± 1.30 L/kg in ...

[2] = Freeze-thaw stability of colistin in rat plasma QC samples; settings: −70 °C to 25 °C after 24 hours, five cycles, n = 4; for Found concentration after freeze-thaw: LC-MS/MS, mean ± S.D., SD
Method: (§1) Colistin sulfate was prepared by dissolving 5.5 mg of the powder in 5 ml water to make a stock solution of 1 mg/ml of colistin. PMB sulfate solution of 1 mg/ml was also prepared by dissolving 5.8 mg of PMB sulfate powder in 5 ml water. Both solutions were stored at −70 °C. Calibration standards and quality controls were prepared by spiking different amounts of colistin sulfate stock solution in plasma. Aliquots of colistin sulfate were further diluted to provide standard concentrations of 0.5, 1, 2, 5, 10, 15, and 20 μg/mL (equivalent to: 78, 156, 312, 780, 1560, 2340 and 3120 ng/ml of colistin A and 353, 706, 1412, 3350, 7060, 10590 and 14120 ng/ml of colistin B) whereas, the concentrations of 1.5, 3.5, 7.5 and 17.5 μg/mL (which contained 234, 546, 1170 and 2730 ng/ml of colistin A and 1059, 2471, 5295 and 12355 ng/ml of colistin B) were considered as quality controls. The calibration standards and quality controls were aliquoted (150 μL) into 0.5 ml Eppendorf tubes and stored at −70 °C pending analysis.
(§2) To 100 μl rat plasma sample, 5 μl of 500 μg/ml IS was added and followed by addition of 400 μl of 50:50 (v/v) methanol-TCA (10%). The samples were vortex-mixed for 1 min, rota-mixed for 10 min at 40 rpm and then centrifuged at 12,000 rpm for 10 min. Following centrifugation, 400 µl of the supernatant was collected and re-extracted with solid phase extraction (SPE) using SPE (Oasis HLB 1 cc, 30 mg) cartridges. First, the cartridges were conditioned with 500 μl of methanol then 500 μl of water. After that, 400 μl of the supernatant was transferred and then washed with 500 μl of water. The tubes were changed and then the samples were eluted with 150 μl of methanol: water: formic acid (80:19:1%, v/v/v) solution. The elution step was repeated twice, and then 250 μl of the solution was transferred to the low volume inserts and 20 μl of this solution was injected into the LC-MS system.
(§3) Various types of stability tests including freeze-thaw stability and long-term stability were assessed. The freeze-thaw stability test was performed by removing the four QC samples out of the storage temperature (−70 °C) and keeping them at room temperature (25 °C) until thawing and then aliquots of the samples were analyzed. After that, the samples were again returned back for freezing in the same storage conditions for 12 to 24 h. The freeze-thaw cycles were repeated five times and 4 replicates of the analytes were assayed. In addition, a long-term stability test was performed to ensure that the stability of the samples for a time that exceeds the interval between the first sample collection and the last sample analysis. Four aliquots of low, medium and high concentrations (QC) were kept for 20 days in the same temperature used to store samples regularly at the lab (−70 °C) then analyzed and compared to the nominal concentration of freshly prepared QC samples. Moreover, the stability in the autosampler (4 °C) was assessed by keeping the processed samples under this condition and assayed periodically at different times for up to 24 hours. In addition, benchtop stability test was performed by keeping the samples at room temperature (25 °C) for six hours and analyzing them during this time. The mean value results of stability tests were calculated and compared to the nominal concentrations.

[3] = Long-term stability of colistin in rat plasma QC samples at −70 °C; settings: 20 days; for Found concentration after long-term storage: LC-MS/MS, mean ± S.D., n = 5, SD; for Bias% from nominal concentration after long-term storage: n = 5
Method: as §1, §2, §3

[4] = Autosampler stability of processed colistin rat plasma samples at 4 °C; settings: 4 °C for 24 hours, n = 4; for Found concentration in autosampler stability study: LC-MS/MS, mean ± S.D., SD
Method: as §1, §2, §3

[5] = Benchtop stability of colistin in rat plasma samples at room temperature; settings: 25 °C for 6 hours, n = 4; for Found concentration in benchtop stability study: LC-MS/MS, mean ± S.D., SD
Method: as §1, §2, §3

[6] = Pharmacokinetic study of colistin in rats after IV colistin sulfate, plasma LC-MS/MS, non-compartmental analysis; settings: male, Sprague Dawley, rat, 15 mg/kg
Method: as §2
Male Sprague Dawley® (MSD) rats (21 weeks ± 3 days of age) with a body weight of 450–550 g [supplied by the Animal Resource Center (ARC), Health Sciences Center (HSC), Kuwait University] were used to estimate the pharmacokinetic profile of colistin. The animals (n = 8) were housed in 12 h/12 h light/dark cycle. […] All the animals were subjected to left jugular vein cannulation, IV drug administration, and subsequent blood sampling. All surgical procedures were carried out under strict aseptic conditions. In addition, all surgical instruments and materials were autoclaved, all solutions were sterile and the surgical procedure was performed with the aid of surgical microscope (Leica wild M690). Animal body temperatures were maintained around 37.6 °C (rectal) by placing the animals on an electronic heating pad throughout the surgical procedure as well as the post-surgical recovery period. About 350 µl of rat blood sample was collected from each animal. From this sample, 50 µl of blood sample was transferred to a capillary tube, sealed with the sealant clay at one end and centrifuged to calculate the Packed Cell Volume (PCV); i.e., Hematocrit. The remaining rat blood sample (300 µl) was centrifuged at 9000 X g for 10 min and aliquots of 100 µl of plasma sample was collected and stored at −70 °C pending analysis.
Colistin was quantified in the biological samples by the present LC-MS/MS method and then the pharmacokinetic parameters (t1/2, CL, Vd, AUC) were estimated by non-compartmental method employing Kinetica® software, version 5.1 (Thermo Fisher Scientific, Waltham, USA).

[7] = in vivo, cited from earlier work
Method: However, colistin sulphate has been reported to be well absorbed after an oral administration in infants. […] The standards and quality control samples concentrations were selected based on the therapeutic range of colistin. The expected colistin serum levels according to the antimicrobial reference laboratory assay service are 5–15 mg/L and 2–4 mg/L for the peak and tough concentrations, respectively. […] Choosing the animal species to perform the pharmacokinetic study was based on the similarity of colistin pharmacokinetic profile between animal species and humans. […] The species that has the closest pharmacokinetic profile to humans are rats[43]–[45].

[8] = rat plasma QC 1.5 μg/mL colistin (nominal 234 ng/ml colistin A, 1059 ng/ml colistin B)
[9] = rat plasma QC 3.5 μg/mL colistin (nominal 546 ng/ml colistin A, 2471 ng/ml colistin B)
[10] = rat plasma QC 7.5 μg/mL colistin (nominal 1170 ng/ml colistin A, 5295 ng/ml colistin B)
[11] = rat plasma QC 17.5 μg/mL colistin (nominal 2730 ng/ml colistin A, 12355 ng/ml colistin B)
[12] = processed rat plasma QC 1.5 μg/mL colistin (nominal 234 ng/ml colistin A, 1059 ng/ml colistin B)
[13] = processed rat plasma QC 3.5 μg/mL colistin (nominal 546 ng/ml colistin A, 2471 ng/ml colistin B)
[14] = processed rat plasma QC 7.5 μg/mL colistin (nominal 1170 ng/ml colistin A, 5295 ng/ml colistin B)
[15] = processed rat plasma QC 17.5 μg/mL colistin (nominal 2730 ng/ml colistin A, 12355 ng/ml colistin B)

CC[C@H](C)CCCCC(=O)N[C@@H](CCN)C(=O)N[C@H](C(=O)N[C@@H](CCN)C(=O)N[C@H]1CCNC(=O)[C@H]([C@@H](C)O)NC(=O)[C@H](CCN)NC(=O)[C@H](CCN)NC(=O)[C@H](CC(C)C)NC(=O)[C@@H](CC(C)C)NC(=O)[C@H](CCN)NC1=O)[C@@H](C)O [Colistin A, colistin A] (X1-[Dab]T[Dab][Dab][Dab][dL]L[Dab][Dab]T; lactam 4-C)
CL of the individual components ([1]; Sivanesan and co-workers, ref 45 (sentence ends with 41)): 2.75 ± 0.54 mL/min/kg | t1/2 of the major components [1]: 1.37 ± 0.515 h | Found concentration after freeze-thaw [2, 8]: 265.4 ± 35.10 ng/mL | Bias% from nominal concentration after freeze-thaw [2, 8]: 13.42% | Found concentration after freeze-thaw [2, 9]: 615.27 ± 30.29 ng/mL | Bias% from nominal concentration after freeze-thaw [2, 9]: 12.69% | Found concentration after freeze-thaw [2, 10]: 1208.93 ± 77.51 ng/mL | Bias% from nominal concentration after freeze-thaw [2, 10]: 3.33% | Found concentration after freeze-thaw [2, 11]: 2551.83 ± 177.97 ng/mL | Bias% from nominal concentration after freeze-thaw [2, 11]: −6.53% | Found concentration after long-term storage [3, 8]: 237.24 ± 5.64 ng/mL | Bias% from nominal concentration after long-term storage [3, 8]: 1.39% | Found concentration after long-term storage [3, 9]: 520.76 ± 19.46 ng/mL | Bias% from nominal concentration after long-term storage [3, 9]: −4.62% | Found concentration after long-term storage [3, 10]: 1134.44 ± 26.11 ng/mL | Bias% from nominal concentration after long-term storage [3, 10]: −3.04% | Found concentration after long-term storage [3, 11]: 2719 ± 50.20 ng/mL | Bias% from nominal concentration after long-term storage [3, 11]: −0.40% | Found concentration in autosampler stability study [4, 12]: 231.18 ± 6.22 ng/mL | Bias% from nominal concentration in autosampler stability study [4, 12]: −1.21% | Found concentration in autosampler stability study [4, 13]: 516.95 ± 53.28 ng/mL | Bias% from nominal concentration in autosampler stability study [4, 13]: −5.32% | Found concentration in autosampler stability study [4, 14]: 1034.9 ± 38.64 ng/mL | Bias% from nominal concentration in autosampler stability study [4, 14]: −11.55% | Found concentration in autosampler stability study [4, 15]: 2917.93 ± 341.07 ng/mL | Bias% from nominal concentration in autosampler stability study [4, 15]: 6.88% | Found concentration in benchtop stability study [5, 8]: 120.275 ± 50.32 ng/mL | Bias% from nominal concentration in benchtop stability study [5, 8]: −48.6% | Found concentration in benchtop stability study [5, 9]: 592.47 ± 488.56 ng/mL | Bias% from nominal concentration in benchtop stability study [5, 9]: 8.51% | Found concentration in benchtop stability study [5, 10]: 1047.6 ± 202.94 ng/mL | Bias% from nominal concentration in benchtop stability study [5, 10]: −10.46% | Found concentration in benchtop stability study [5, 11]: 5045 ± 3076.10 ng/mL | Bias% from nominal concentration in benchtop stability study [5, 11]: 84.8% | level at 0.5 h [6]: 4110 ng/mL

colistimethate sodium [CMS]
Vd at steady state ([7]; human): 0.34 ± 0.10 L/kg | t1/2 ([7]; human): 2.07 ± 0.867 h | absorption after intramuscular injection [7]: rapidly absorbed | absorption through burns, inflamed skin or mucosal membranes [7]: not absorbed | absorption through the GIT [7]: poorly absorbed

colistin sulphate
absorption after oral administration in infants ([7]; po): well absorbed | absorption from the gastrointestinal tract (GIT) ([7]; po): poorly absorbed | maximum serum concentration [7]: 0.13 mg/L | time of maximum serum concentration [7]: 1.5 h
